Where two headings read alike, the source gives them in different places.
Columns and labels:
HCG [1] = format: in vivo, rabbit
[2] = tested on: peptide used in the conjugate (Structure (II), (XII), (XIV), (X)); assay: Antibody level to the peptide of the conjugate in immunized mice (^125I antigen, double antibody technique); format: in vivo; details: for Antibody level to Structure (XII): 52 days; for Antibody Level to Peptide: mice, carrier series
HCG [3] = assay: Antibody level to HCG in immunized mice (^125I antigen, double antibody technique); format: in vivo; details: for Antibody level to CG: 52 days; for Antibody Level to HCG: mice, carrier series
baboons = assay: Breeding of immunized baboons (pre-mate titer, ovulation, pregnancy), Diazo-β-HCG presensitized, Diazo-β-HCG-(111-145) booster; format: in vivo, baboon; details: for Pre-Mate Titer: baboon 2, matings No. 1-10 over approximately one year
Procedure: Baboons were immunized initially with a beta subunit of HCG modified by diazotization in a manner similar to that described in conjunction with Example II. Following this initial administration, the baboons were injected 21 and 42 days later with the peptide of Structure (II) above which had been modified by the same diazotization process. The levels were maintained for a period of over one year.
The Table presents the results of mating these animals ten times over a period of approximately one year. […] Such cross reactivity may be avoided by the utilization of the fragment conjugation procedures set forth in detail hereinabove.

Compound | Mean Antibody Level-^125I-HCG (HCG [1]; as E193, 4 weeks) [M/L × 10^10] | Mean Antibody Level-^125I-HCG (HCG [1]; as E193, 5 weeks) [M/L × 10^10] | Mean Antibody Level-^125I-HCG (HCG [1]; as E193, 6 weeks) [M/L × 10^10] | Mean Antibody Level-^125I-HCG (HCG [1]; as E193, 7 weeks) [M/L × 10^10] | Mean Antibody Level-^125I-HCG (HCG [1]; as E193, 8 weeks) [M/L × 10^10] | Mean Antibody Level-^125I-HCG (HCG [1]; as E193, 9 weeks) [M/L × 10^10] | Mean Antibody Level-^125I-HCG (HCG [1]; as E193, 10 weeks) [M/L × 10^10] | Mean Antibody Level-^125I-HCG (HCG [1]; as E193, 11 weeks) [M/L × 10^10] | Mean Antibody Level-^125I-HCG (HCG [1]; as E193, 12 weeks) [M/L × 10^10] | HCG antibody levels compared with rabbits receiving adjuvants CGP 16940 and 12908 (HCG [1]; in vivo) | Mean Antibody Level-^125I-HCG (HCG [1]; in vivo) [M/L × 10^10] | Antibody level to Structure (XII) [2] [ng/mL] | Antibody level to Structure (XII) ([2]; C3H/He mice, same conjugate) [ng/mL] | Antibody level to Structure (XII) ([2]; DBA/1 mice, same conjugate) [ng/mL] | Antibody level to Structure (XII) ([2]; SJL mice, same conjugate) [ng/mL] | Antibody level to CG (HCG [3]) [ng/mL] | Antibody level to CG (HCG [3]; C3H/He mice, same conjugate) [ng/mL] | Antibody level to CG (HCG [3]; DBA mice, same conjugate) [ng/mL] | Antibody level to CG (HCG [3]; SJL mice, same conjugate) [ng/mL] | also measured
NGlycol-Mur-L. a -Abu-D.isoGln [DT-1] | 145.1 | 184.1 | 268.6 | 371.5 | 366.2 | 654.8 | 729.4 | 627.5 | 559.0 | significantly greater | 31.1 | – | – | – | – | – | – | – | – | –
CC(=O)N[C@H]1C(O)O[C@H](CO)[C@@H](O)[C@@H]1OCC(=O)N[C@@H](C)C(=O)N[C@H](CCC(=O)O)C(N)=O (stereo partly drawn) [CGP 11637, NAc-nor Mur-L. Ala-D. iso Gln] | 177.8 | 211.9 | 297.2 | 381.2 | 418.6 | 480.0 | 708.6 | 628.5 | 398.5 | significantly greater | 16.3 | 70.9 | 84.0 | 42.5 | 60.1 | 18.3 | 21.5 | 10.6 | 13.8 | –
N-Palmitoyl-S-[2(R,S)-3-dipalmitoyloxy-propyl]-L-Cys-L-Ser-L-Ser-L-Asn-L-Ala-L-Glu [CGP 16940] | – | – | – | – | – | – | – | – | – | – | – | 110.0 | 19.2 | 173.0 | 369.0 | 1.0 | <1.0 | <1.0 | 8.6 | HCG antibody levels compared with the CFA immunized rabbits (HCG [1]; in vivo): significantly lower
Diazo-β-HCG-(111-145): peptide of Structure (II) modified by diazotization, booster after presensitization with diazotized beta subunit of HCG (DDPRFQDSSSSKAPPPSLPSPSRLPGPSDTPILPQ; diazo conjugate; UniProt P0DN86 131-165, looked up, fragment) | – | – | – | – | – | – | – | – | – | – | – | – | – | – | – | – | – | – | – | Pre-Mate Titer (baboons; before Mating No. 2): 4.10; Pre-Mate Titer (baboons; before Mating No. 3): 4.00; Pre-Mate Titer (baboons; before Mating No. 4): 3.89; Pre-Mate Titer (baboons; before Mating No. 5): 3.76; Pre-Mate Titer (baboons; before Mating No. 6): 5.00; Pre-Mate Titer (baboons; before Mating No. 7): 4.75; Pre-Mate Titer (baboons; before Mating No. 8): 4.20; Pre-Mate Titer (baboons; before Mating No. 9): 4.25; antibody cross reactivity with LH (baboons; in vivo): antibody cross reactivity with LH was observed
CCC(NC(=O)COC1C(O)C(CO)OC(O)C1NC(C)=O)C(=O)NC(CCC(=O)O)C(N)=O [CGP 14767, NAc-nor-Mur-L-Abu-D.isoGln] | – | – | – | – | – | – | – | – | – | – | – | 53.0 | 74.9 | 22.2 | 91.6 | 21.0 | 21.4 | 11.1 | 5.4 | –
Structure (XII): residues 109-145 of beta-HCG, SEQ ID NO: 13; unconjugated in Table 11 (carrier None) (TCDDPRFQDSSSSKAPPPSLPSPSRLPGPSDTPILPQ; listed as Homo sapiens) | – | – | – | – | – | – | – | – | – | – | – | – | – | – | – | – | – | – | – | Antibody Level to Peptide ([2]; peptide of Structure (XII), 21 days after primary immunization): 1.3 ng/mL; Antibody Level to Peptide ([2]; 35 days): 0.8 ng/mL; Antibody Level to HCG (HCG [3]; 21 days): 0.1 ng/mL; Antibody Level to HCG (HCG [3]; 35 days): 0.1 ng/mL
